Experimental data reported in patent US8637510B2, “Morpholinothiazoles as alpha 7 positive allosteric modulators” (Janssen Pharmaceutica NV, priority 2009, dated 2014).

Columns and labels:
human alpha 7-wt nAChR = molecular target: T1, human alpha 7-wt nAChR (Homo sapiens, UniProt P36544); assay: Ca2+ flux imaging (FDSS) (Protocol B); format: cell-based; details: for EC50: potentiation of 100 μM choline, compounds 0.01 μM to 30 μM, read-out: a7-PAM-G_[33]_pEC50 pEC50 (converted); for Emax: read-out: a7-PAM-G_[33]_Eff_Curve_FI % Efficacy
T1 construct: expressed in transfected cells
Summary of the method: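 Fluo-4AM-loaded cells expressing human α7-wt nAChR, in HBSS with 10 mM HEPES, 5 mM CaCl2, 0.1% BSA, received compound (0.01–30 μM), typically 10 min before 100 μM choline, with calcium flux read in real time. Potentiation is relative to choline alone (100%); EC50 from sigmoidal curves.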

[1] = molecular target: T2, human alpha 7-wt nAChR-expressing GH4C1 cells (Homo sapiens, UniProt P36544); assay: Patch-clamp current recording (whole-cell voltage-clamp, PAM type classification); format: cell-based; design: key: Type 0 compounds minimally change the effect size of the current elicited by 1 mM choline.; Type 1 compounds enhance the effect size of the current elicited by 1 mM choline but minimally alter the kinetics of the receptor.; Type 2 compounds enhance the effect size of the current elicited by 1 mM choline while reducing the rate and/or the extent of desensitization.; Type 3 compounds enhance the effect size of the current elicited by 1 mM choline. When tested at higher concentrations up to 10 μM they completely inhibit desensitization; Type 4 compounds allow for an initial desensitization of the receptor followed by a re-opening of the receptor during agonist application; details: 1 mM choline
T2 construct: expressed in transfected cells
Procedure: The compounds of the present invention are classified as type 1-4, based on qualitative kinetic properties, as determined by whole-cell voltage-clamp recordings. This classification is based on the effect of an alpha 7 PAM compound, as described hereinbefore, on the signal elicited by an agonist application. In particular, said agonist is choline at a concentration of 1 mM. In a preferred experimental setting, said alpha 7 PAM compound and choline are simultaneously applied to the cell, as described hereinafter. Desensitization is defined as the closure of the receptor upon activation during the application of the agonist in whole-cell voltage-clamp electrophysiology measurements seen as the reduction of the […] current after initial activation by the agonist.
The definition of the PAM types 1-4 is described hereinafter: • Type 0 compounds minimally change the effect size of the current elicited by 1 mM choline. • Type 1 compounds enhance the effect size of the current elicited by 1 mM choline but minimally alter the kinetics of the receptor. In particular, the rate and the extent of desensitization and of deactivation of the receptor elicited by the agonist is not affected. The compound-modulated response to 1 mM choline, therefore, is close to a linear scaling of the 1 mM choline response in absence of the alpha 7 PAM compound. • Type 2 compounds enhance the effect size of the current elicited by 1 mM choline while reducing the rate and/or the extent of desensitization. Deactivation of the receptor is generally unaffected. • Type 3 compounds enhance the effect size of the current elicited by 1 mM choline. […] Deactivation of the receptor may be slowed down • Type 4 compounds allow for an initial desensitization of the receptor followed by a re-opening of the receptor during agonist application. At low-potency concentrations of the alpha 7 PAM compound, the agonist-induced activation, which is followed by desensitization, can still be separated from the compound-induced re-opening as an initial inward current-maximum. At higher potency concentrations of the alpha 7 PAM compound, the re-opening occurs faster than the closure due to desensitization so that the initial current-maximum disappears.
A compound was considered to have interesting PAM-like activity when the potentiation of the peak current was at least 200% compared to the control choline response (=100%). Such compounds are classified as belonging to a particular PAM type in the Experimental Part. Compounds not meeting the condition are not classified as belonging to a particular PAM-type.
The compounds also have a potentiating effect on the response to choline when measured by whole-cell patch clamp electrophysiology in GH4C1 cells stably over-expressing the human wild-type alpha 7 receptor.
Patch-clamp recording from mammalian cells has provided a powerful means of assessing the function of membrane-bound proteins thought to be subunits of ligand-gated ion channels. Activation of such proteins by endogenous or exogenous ligands cause opening of a pore associated with the receptor through which ions flow down their electrochemical gradient. In the case of the human alpha 7-wt nAChR-expressing GH4C1 recombinant cell line the preferential permeability to calcium of this receptor means that calcium flows into the cell upon activation by ACh, choline and other nicotinic ligands giving rise to a calcium current. Since this receptor rapidly desensitizes in the presence of agonist it is important that an application system is used which is capable of very rapid switching of solutions (<100 ms) to prevent partial or full desensitisation of receptor responses coincident with the time of agonist application. Consequently, a second convenient technique to assess the enhancement of nicotinic efficacy is a patch-clamp recording from human alpha 7-wt nAChR-expressing GH4C1 cells coupled with a rapid-application system. […]

[2] = efficacy of 100 μM choline defined as 100% in the absence of a PAM

T1 sequence (P36544 23-502): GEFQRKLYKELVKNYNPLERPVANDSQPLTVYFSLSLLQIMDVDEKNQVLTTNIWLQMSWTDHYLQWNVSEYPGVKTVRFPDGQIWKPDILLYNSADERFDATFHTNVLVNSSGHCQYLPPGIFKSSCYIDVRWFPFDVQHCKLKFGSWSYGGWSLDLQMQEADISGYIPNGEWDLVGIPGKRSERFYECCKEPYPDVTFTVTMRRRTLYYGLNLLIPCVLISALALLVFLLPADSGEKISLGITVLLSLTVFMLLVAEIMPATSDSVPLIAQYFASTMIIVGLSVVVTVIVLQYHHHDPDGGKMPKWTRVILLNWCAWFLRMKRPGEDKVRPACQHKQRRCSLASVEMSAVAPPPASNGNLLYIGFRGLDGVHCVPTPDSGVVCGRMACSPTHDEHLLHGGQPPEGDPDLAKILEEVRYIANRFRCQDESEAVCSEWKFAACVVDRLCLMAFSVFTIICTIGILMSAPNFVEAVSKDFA
T2 sequence (P36544 23-502): as above

Row | SMILES | a7-PAM-G_[33]_Eff_Curve_FI % Efficacy (human alpha 7-wt nAChR; [2]) [%] | EC50 (human alpha 7-wt nAChR) [nM] | PAM_Type PAM type [1] | Emax (human alpha 7-wt nAChR; [2]) [%]
1 | Cc1cc(-c2sc(N3CC(C)OC(C(F)(F)F)C3)nc2CNC(=O)CC2CC2)cc(C)n1 (racemic) [Compound 202, N-[[5-(2,6-dimethyl-4-pyridinyl)-2-[2-methyl-6-(trifluoromethyl)-4-morpholinyl]-4-thiazolyl]methyl]-cyclopropaneacetamide] | 735 | 21.4 | 2 | –
2 | Cc1cc(-c2sc(N3CCOC(C)C3)nc2CNC(=O)c2conc2C)cc(C)n1 (single isomer, unassigned) [Compound 69, N-[[5-(2,6-dimethyl-4-pyridinyl)-2-[(2S*)-2-methyl-4-morpholinyl]-4-thiazolyl]methyl]-3-methyl-4-isoxazolecarboxamide] | – | 955 | 2 | 645
3 | Cc1cc(-c2sc(N3CCOC(C)C3)nc2CNC(=O)c2conc2C)cc(C)n1 (single isomer, unassigned) [Compound 73, N-[[5-(2,6-dimethyl-4-pyridinyl)-2-[(2R*)-2-methyl-4-morpholinyl]-4-thiazolyl]methyl]-3-methyl-4-isoxazolecarboxamide] | – | 724 | 2 | –
4 | Cc1cc(-c2sc(N3C[C@@H](C)O[C@@H](C)C3)nc2CNC(=O)C2CCC2)cc(C)n1 [Compound 2, N-[[2-[(2R,6S)-2,6-dimethyl-4-morpholinyl]-5-(2,6-dimethyl-4-pyridinyl)-4-thiazolyl]methyl]-cyclobutanecarboxamide] | – | 67.6 | 2 | –
5 | Cc1cc(-c2sc(N3C[C@@H](C)O[C@@H](C)C3)nc2CNC(=O)c2ccccc2Cl)cc(C)n1 [Compound 5, 2-chloro-N-[[2-[(2R,6S)-2,6-dimethyl-4-morpholinyl]-5-(2,6-dimethyl-4-pyridinyl)-4-thiazolyl]methyl]-benzamide] | – | 135 | 2 | 568
6 | Cc1cc(-c2sc(N3C[C@@H](C)O[C@@H](C)C3)nc2CNC(=O)c2cccc(F)c2)cc(C)n1 [Compound 7, N-[[2-[(2R,6S)-2,6-dimethyl-4-morpholinyl]-5-(2,6-dimethyl-4-pyridinyl)-4-thiazolyl]methyl]-3-fluoro-benzamide] | – | 316 | 2 | 723
7 | Cc1cc(-c2sc(N3C[C@@H](C)O[C@@H](C)C3)nc2CNC(=O)c2ccc(F)cc2)cc(C)n1 [Compound 8, N-[[2-[(2R,6S)-2,6-dimethyl-4-morpholinyl]-5-(2,6-dimethyl-4-pyridinyl)-4-thiazolyl]methyl]-4-fluoro-benzamide] | – | 457 | 2 | 452
8 | Cc1cc(-c2sc(N3C[C@@H](C)O[C@@H](C)C3)nc2CNC(=O)c2cccc(Cl)c2)cc(C)n1 [Compound 9, 3-chloro-N-[[2-[(2R,6S)-2,6-dimethyl-4-morpholinyl]-5-(2,6-dimethyl-4-pyridinyl)-4-thiazolyl]methyl]-benzamide] | – | 240 | 2 | 566
9 | Cc1cc(-c2sc(N3C[C@@H](C)O[C@@H](C)C3)nc2CNC(=O)c2ccc(Cl)cc2Cl)cc(C)n1 [Compound 10, 2,4-dichloro-N-[[2-[(2R,6S)-2,6-dimethyl-4-morpholinyl]-5-(2,6-dimethyl-4-pyridinyl)-4-thiazolyl]methyl]-benzamide] | – | 83.2 | 2 | 630
10 | Cc1cc(-c2sc(N3C[C@@H](C)O[C@@H](C)C3)nc2CNC(=O)c2ccc(OC(F)(F)F)cc2)cc(C)n1 [Compound 11, N-[[2-[(2R,6S)-2,6-dimethyl-4-morpholinyl]-5-(2,6-dimethyl-4-pyridinyl)-4-thiazolyl]methyl]-4-(trifluoromethoxy)-benzamide] | – | 813 | 2 | 703
11 | Cc1cc(-c2sc(N3C[C@@H](C)O[C@@H](C)C3)nc2CNC(=O)c2cccc(C#N)c2)cc(C)n1 [Compound 12, 3-cyano-N-[[2-[(2R,6S)-2,6-dimethyl-4-morpholinyl]-5-(2,6-dimethyl-4-pyridinyl)-4-thiazolyl]methyl]-benzamide] | – | 550 | 2 | 595
12 | Cc1cc(-c2sc(N3C[C@@H](C)O[C@@H](C)C3)nc2CNC(=O)c2ccc(F)cc2F)cc(C)n1 [Compound 13, N-[[2-[(2R,6S)-2,6-dimethyl-4-morpholinyl]-5-(2,6-dimethyl-4-pyridinyl)-4-thiazolyl]methyl]-2,4-difluoro-benzamide] | – | 288 | 2 | 593
13 | Cc1cc(-c2sc(N3C[C@@H](C)O[C@@H](C)C3)nc2CNC(=O)c2ccc(F)c(F)c2F)cc(C)n1 [Compound 14, N-[[2-[(2R,6S)-2,6-dimethyl-4-morpholinyl]-5-(2,6-dimethyl-4-pyridinyl)-4-thiazolyl]methyl]-2,3,4-trifluoro-benzamide] | – | 339 | 2 | 787
14 | Cc1cc(-c2sc(N3C[C@@H](C)O[C@@H](C)C3)nc2CNC(=O)c2cc(F)cc(F)c2)cc(C)n1 [Compound 15, N-[[2-[(2R,6S)-2,6-dimethyl-4-morpholinyl]-5-(2,6-dimethyl-4-pyridinyl)-4-thiazolyl]methyl]-3,5-difluoro-benzamide] | – | 170 | 2 | 411
15 | Cc1cc(-c2sc(N3C[C@@H](C)O[C@@H](C)C3)nc2CNC(=O)c2cccnc2C)cc(C)n1 [Compound 17, N-[[2-[(2R,6S)-2,6-dimethyl-4-morpholinyl]-5-(2,6-dimethyl-4-pyridinyl)-4-thiazolyl]methyl]-2-methyl-3-pyridinecarboxamide] | – | 1000 | 2 | 499
16 | Cc1cc(-c2sc(N3C[C@@H](C)O[C@@H](C)C3)nc2CNC(=O)c2ccc(Cl)cc2)cc(C)n1 [Compound 19, 4-chloro-N-[[2-[(2R,6S)-2,6-dimethyl-4-morpholinyl]-5-(2,6-dimethyl-4-pyridinyl)-4-thiazolyl]methyl]-benzamide] | – | 100 | 2 | 378
17 | Cc1cc(-c2sc(N3C[C@@H](C)O[C@@H](C)C3)nc2CNC(=O)c2ccc(C(F)(F)F)cc2)cc(C)n1 [Compound 23, N-[[2-[(2R,6S)-2,6-dimethyl-4-morpholinyl]-5-(2,6-dimethyl-4-pyridinyl)-4-thiazolyl]methyl]-4-(trifluoromethyl)-benzamide] | – | 229 | 2 | 594
18 | Cc1cc(-c2sc(N3C[C@@H](C)O[C@@H](C)C3)nc2CNC(=O)c2ccc(F)cc2C)cc(C)n1 [Compound 24, N-[[2-[(2R,6S)-2,6-dimethyl-4-morpholinyl]-5-(2,6-dimethyl-4-pyridinyl)-4-thiazolyl]methyl]-4-fluoro-2-methyl-benzamide] | – | 17.4 | 2 | 526
